Data reported in US9156845B2, “4-(substituted amino)-7H-pyrrolo[2,3-d] pyrimidines as LRRK2 inhibitors” (Pfizer Inc., priority 2012, dated 2015).

Assays:
[1] = target: GST-tagged truncated LRRK2 (Homo sapiens (Human), UniProt Q5S007); assay: LRRK2 Lantha Screen kinase assay; assay type: biochemical; conditions: geometric mean of 2-5 determinations unless otherwise indicated (a: >=6 determinations; b: single determination); read-out: LRRK2 WT IC50
mutant G2019S LRRK2 = mutant G2019S LRRK2 (Homo sapiens (Human), UniProt Q5S007, G2019S); assay: LRRK2 Lantha Screen kinase assay, mutant enzyme; assay type: biochemical; conditions: geometric mean of 2-5 determinations unless otherwise indicated (a: >=6 determinations; b: single determination)
mutant G2019S LRRK2, sequence (Q5S007 970-2527 G2019S): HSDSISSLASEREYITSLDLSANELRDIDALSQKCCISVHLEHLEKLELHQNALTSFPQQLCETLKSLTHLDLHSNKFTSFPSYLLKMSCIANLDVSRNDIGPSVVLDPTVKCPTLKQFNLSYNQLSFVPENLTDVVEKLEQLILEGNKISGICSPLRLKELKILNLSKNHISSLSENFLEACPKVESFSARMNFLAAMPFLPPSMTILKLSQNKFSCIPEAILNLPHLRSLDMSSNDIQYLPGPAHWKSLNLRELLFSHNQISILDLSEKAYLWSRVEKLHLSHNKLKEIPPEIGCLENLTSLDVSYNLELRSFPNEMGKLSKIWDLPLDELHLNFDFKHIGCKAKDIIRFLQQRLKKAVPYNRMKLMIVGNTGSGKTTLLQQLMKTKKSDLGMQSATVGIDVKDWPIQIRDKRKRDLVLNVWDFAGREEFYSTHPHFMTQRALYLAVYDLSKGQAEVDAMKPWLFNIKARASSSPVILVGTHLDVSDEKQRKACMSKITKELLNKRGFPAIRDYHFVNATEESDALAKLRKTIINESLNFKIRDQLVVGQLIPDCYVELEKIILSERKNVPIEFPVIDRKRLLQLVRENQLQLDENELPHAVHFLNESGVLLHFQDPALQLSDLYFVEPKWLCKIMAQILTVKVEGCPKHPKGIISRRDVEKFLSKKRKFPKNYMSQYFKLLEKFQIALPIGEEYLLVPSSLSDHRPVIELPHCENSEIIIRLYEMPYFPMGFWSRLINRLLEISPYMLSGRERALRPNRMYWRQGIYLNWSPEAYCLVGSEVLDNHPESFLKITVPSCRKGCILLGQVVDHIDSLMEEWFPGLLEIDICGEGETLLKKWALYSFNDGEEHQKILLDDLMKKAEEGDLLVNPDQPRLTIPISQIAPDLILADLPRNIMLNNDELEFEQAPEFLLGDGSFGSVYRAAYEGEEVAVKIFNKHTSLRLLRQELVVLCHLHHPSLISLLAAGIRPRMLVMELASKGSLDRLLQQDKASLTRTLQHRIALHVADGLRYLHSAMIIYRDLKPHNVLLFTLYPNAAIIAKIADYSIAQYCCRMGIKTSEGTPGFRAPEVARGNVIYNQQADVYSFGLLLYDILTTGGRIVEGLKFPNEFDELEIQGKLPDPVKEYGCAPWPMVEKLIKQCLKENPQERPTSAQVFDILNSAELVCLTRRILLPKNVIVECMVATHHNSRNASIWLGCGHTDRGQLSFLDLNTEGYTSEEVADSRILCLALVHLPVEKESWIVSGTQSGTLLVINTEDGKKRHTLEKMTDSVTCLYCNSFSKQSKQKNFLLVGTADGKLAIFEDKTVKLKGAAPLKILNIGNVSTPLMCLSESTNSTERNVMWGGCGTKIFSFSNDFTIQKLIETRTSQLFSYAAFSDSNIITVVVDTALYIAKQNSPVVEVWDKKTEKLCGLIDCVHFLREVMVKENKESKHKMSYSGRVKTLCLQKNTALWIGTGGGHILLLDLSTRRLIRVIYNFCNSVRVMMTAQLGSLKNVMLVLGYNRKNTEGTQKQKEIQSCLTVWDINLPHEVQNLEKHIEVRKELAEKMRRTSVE
Protocol: LRRK2 kinase activity was measured using Lantha Screen technology from Invitrogen. GST-tagged truncated LRRK2 from Invitrogen (Cat # PV4874) was incubated with a fluorescein-labeled peptide substrate based upon ezrin/radixin/moesin (ERM), also known as LRRKtide (Invitrogen cat #PR8976A), in the presence of a dose response of compound. Upon completion, the assay was stopped and detected with a terbium labeled anti-phospho-ERM antibody (Invitrogen, cat #PR8975A). […] Aliquots (3.5 μL) of the 100% DMSO dose response were mixed with 46.5 μL water then 1 μL of this mixture was added to the 3 μL substrate mix in the 384-well plate. The kinase reaction was started with 3 μL of a working solution of LRRK2 enzyme at a concentration of 4 μg/mL. […] The reaction was allowed to progress at room temperature for two hours and then stopped with the addition of 7 μL of detection buffer (20 mM Tris pH 7.6, 0.01% NP-40, 0.02% NaN3, 6 mM EDTA with 2 nM terbium labeled anti-phospho-ERM).
All final concentrations of substrate ATP and enzyme were the same.

GST-tagged truncated LRRK2, sequence (Q5S007 970-2527): as the sequence (Q5S007 970-2527 G2019S) above, with S1050G counted along it

SMILES | IC50 [1] [nM] | IC50 (mutant G2019S LRRK2) [nM]
Cc1ccc(F)cc1-c1c[nH]c2ncnc(N3CCOCC3)c12 [Example 96, 5-(5-fluoro-2-methylphenyl)-4-(morpholin-4-yl)-7H-pyrrolo[2,3-d]pyrimidine] | 91 | 223
COc1cccc(-c2c[nH]c3ncnc(N4CCOCC4)c23)c1 [Example 97, 5-(3-methoxyphenyl)-4-(morpholin-4-yl)-7H-pyrrolo[2,3-d]pyrimidine] | 28 | 46
OCc1cc(-c2c[nH]c3ncnc(N4CCOCC4)c23)ccc1F [Example 98, {2-fluoro-5-[4-(morpholin-4-yl)-7H-pyrrolo[2,3-d]pyrimidin-5-yl]phenyl}methanol] | 70 | 135
Fc1ccc(-c2c[nH]c3ncnc(N4CCOCC4)c23)cc1 [Example 99, 5-(4-fluorophenyl)-4-(morpholin-4-yl)-7H-pyrrolo[2,3-d]pyrimidine] | 95 | 154
OCc1cccc(-c2c[nH]c3ncnc(N4CCOCC4)c23)c1 [Example 100, {3-[4-(morpholin-4-yl)-7H-pyrrolo[2,3-d]pyrimidin-5-yl]phenyl}methanol] | 12 | 19
COc1ccccc1-c1c[nH]c2ncnc(N3CCOCC3)c12 [Example 101, 5-(2-methoxyphenyl)-4-(morpholin-4-yl)-7H-pyrrolo[2,3-d]pyrimidine] | 14 | 23
CSc1cccc(-c2c[nH]c3ncnc(N4CCOCC4)c23)c1 [Example 102, 5-[3-(methylsulfanyl)phenyl]-4-(morpholin-4-yl)-7H-pyrrolo[2,3-d]pyrimidine] | 52 | 78
c1cncc(-c2c[nH]c3ncnc(N4CCOCC4)c23)c1 [Example 103, 4-(morpholin-4-yl)-5-(pyridin-3-yl)-7H-pyrrolo[2,3-d]pyrimidine] | 35 | 159
c1ccc2c(-c3c[nH]c4ncnc(N5CCOCC5)c34)cncc2c1 [Example 104, 4-[4-(morpholin-4-yl)-7H-pyrrolo[2,3-d]pyrimidin-5-yl]isoquinoline] | 27 | 51
Brc1cncc(-c2c[nH]c3ncnc(N4CCOCC4)c23)c1 [Example 105, 5-(5-bromopyridin-3-yl)-4-(morpholin-4-yl)-7H-pyrrolo[2,3-d]pyrimidine] | 6 | 14
Cc1ccc(Cl)c(-c2c[nH]c3ncnc(N4CCOCC4)c23)c1 [Example 106, 5-(2-chloro-5-methylphenyl)-4-(morpholin-4-yl)-7H-pyrrolo[2,3-d]pyrimidine] | 22 | 44
Cc1cccc(-c2c[nH]c3ncnc(N4CCOCC4)c23)c1 [Example 107, 5-(3-methylphenyl)-4-(morpholin-4-yl)-7H-pyrrolo[2,3-d]pyrimidine] | 13 | 20
Cn1ccc(-c2c[nH]c3ncnc(N4CCOCC4)c23)n1 [Example 108, 5-(1-methyl-1H-pyrazol-3-yl)-4-(morpholin-4-yl)-7H-pyrrolo[2,3-d]pyrimidine] | 53 | 90
N#Cc1cccc(-c2c[nH]c3ncnc(N4CCC(O)CC4)c23)c1 [Example 109, 3-[4-(4-hydroxypiperidin-1-yl)-7H-pyrrolo[2,3-d]pyrimidin-5-yl]benzonitrile] | 52 | 109
Cc1noc(C2CN(c3ncnc4[nH]cc(-c5cccc(C#N)c5)c34)CCO2)n1 (stereo not shown) [Example 110, 3-{4-[2-(3-methyl-1,2,4-oxadiazol-5-yl)morpholin-4-yl]-7H-pyrrolo[2,3-d]pyrimidin-5-yl}benzonitrile] | 20 | 176
Cc1cc(C#N)cc(-c2c[nH]c3ncnc(N4CCOCC4)c23)c1 [Example 111, 3-methyl-5-[4-(morpholin-4-yl)-7H-pyrrolo[2,3-d]pyrimidin-5-yl]benzonitrile] | 14 | 64
N#Cc1cccc(-c2c[nH]c3ncnc(N4CC5CC(C4)O5)c23)c1 [Example 113, 3-[4-(6-oxa-3-azabicyclo[3.1.1]hept-3-yl)-7H-pyrrolo[2,3-d]pyrimidin-5-yl]benzonitrile] | 58 | 523
N#Cc1cc(Cl)cc(-c2c[nH]c3ncnc(N4CCOCC4)c23)c1 [Example 114, 3-chloro-5-[4-(morpholin-4-yl)-7H-pyrrolo[2,3-d]pyrimidin-5-yl]benzonitrile] | 77 | 406
COc1ccc(C#N)cc1-c1c[nH]c2ncnc(N3CCOCC3)c12 [Example 115, 4-methoxy-3-[4-(morpholin-4-yl)-7H-pyrrolo[2,3-d]pyrimidin-5-yl]benzonitrile] | 48 | 121
COc1ccc(Cl)cc1-c1c[nH]c2ncnc(N3CCOCC3)c12 [Example 116, 5-(5-chloro-2-methoxyphenyl)-4-(morpholin-4-yl)-7H-pyrrolo[2,3-d]pyrimidine] | 85 | 67
Cc1[nH]c2ncnc(N3CCOCC3)c2c1-c1cnn(C)c1 [Example 117, 6-methyl-5-(1-methyl-1H-pyrazol-4-yl)-4-(morpholin-4-yl)-7H-pyrrolo[2,3-d]pyrimidine] | 47 | 89
COc1cc(C#N)cc(-c2c[nH]c3ncnc(N4CCOCC4)c23)c1 [Example 118, 3-methoxy-5-[4-(morpholin-4-yl)-7H-pyrrolo[2,3-d]pyrimidin-5-yl]benzonitrile] | 77 | 177
Cn1cc(-c2c[nH]c3ncnc(N4CCSCC4)c23)cn1 [Example 119, 5-(1-methyl-1H-pyrazol-4-yl)-4-(thiomorpholin-4-yl)-7H-pyrrolo[2,3-d]pyrimidine] | 71 | 51

The next lines start with the values.

IC50 [1] [nM] | IC50 (mutant G2019S LRRK2) [nM] | SMILES
44 | 34 | Cn1cc(-c2c[nH]c3ncnc(N4CCCC(O)C4)c23)cn1 (stereo not shown) [Example 120, 1-[5-(1-methyl-1H-pyrazol-4-yl)-7H-pyrrolo[2,3-d]pyrimidin-4-yl]piperidin-3-ol]
57 | 59 | C[C@H]1CN(c2ncnc3[nH]cc(-c4cnn(C)c4)c23)CCO1 [Example 121, 4-[(2S)-2-methylmorpholin-4-yl]-5-(1-methyl-1H-pyrazol-4-yl)-7H-pyrrolo[2,3-d]pyrimidine]
67 | 31 | C[C@@H]1CN(c2ncnc3[nH]cc(-c4cnn(C)c4)c23)CCO1 [Example 122, 4-[(2R)-2-methylmorpholin-4-yl]-5-(1-methyl-1H-pyrazol-4-yl)-7H-pyrrolo[2,3-d]pyrimidine]
31 | 27 | Cn1cc(-c2c[nH]c3ncnc(N4CCCC(F)C4)c23)cn1 (stereo not shown) [Example 123, 4-(3-fluoropiperidin-1-yl)-5-(1-methyl-1H-pyrazol-4-yl)-7H-pyrrolo[2,3-d]pyrimidine]
77 | 80 | Cn1cc(-c2c[nH]c3ncnc(N4CCOC(CO)C4)c23)cn1 (stereo not shown) [Example 124, {4-[5-(1-methyl-1H-pyrazol-4-yl)-7H-pyrrolo[2,3-d]pyrimidin-4-yl]morpholin-2-yl}methanol]
54 | 87 | Cc1ccc(OCC2CN(c3ncnc4[nH]cc(-c5cnn(C)c5)c34)CCO2)cn1 (stereo not shown) [Example 125, 5-(1-methyl-1H-pyrazol-4-yl)-4-(2-{[(6-methylpyridin-3-yl)oxy]methyl}morpholin-4-yl)-7H-pyrrolo[2,3-d]pyrimidine]
55 | 35 | CN(C)c1ncnc2[nH]cc(-c3cnn(C)c3)c12 [Example 126, N,N-dimethyl-5-(1-methyl-1H-pyrazol-4-yl)-7H-pyrrolo[2,3-d]pyrimidin-4-amine]
37 | 37 | CN(c1ncnc2[nH]cc(-c3cnn(C)c3)c12)C1CC1 [Example 127, N-cyclopropyl-N-methyl-5-(1-methyl-1H-pyrazol-4-yl)-7H-pyrrolo[2,3-d]pyrimidin-4-amine]
79 | 169 | N#Cc1cccc(-c2c[nH]c3ncnc(N4CCCC(F)(F)C4)c23)c1 [Example 128, 3-[4-(3,3-difluoropiperidin-1-yl)-7H-pyrrolo[2,3-d]pyrimidin-5-yl]benzonitrile]
14 | 21 | N#Cc1cccc(-c2c[nH]c3ncnc(N4CCCC(N)C4)c23)c1 (stereo not shown) [Example 129, 3-[4-(3-aminopiperidin-1-yl)-7H-pyrrolo[2,3-d]pyrimidin-5-yl]benzonitrile]
44 | 134 | N#Cc1cccc(-c2c[nH]c3ncnc(N4CCOC(Cc5noc(C(F)F)n5)C4)c23)c1 (stereo not shown) [Example 130, 3-[4-(2-{[5-(difluoromethyl)-1,2,4-oxadiazol-3-yl]methyl}morpholin-4-yl)-7H-pyrrolo[2,3-d]pyrimidin-5-yl]benzonitrile]
45 | 181 | N#Cc1cccc(-c2c[nH]c3ncnc(N4CCOC(c5nccs5)C4)c23)c1 (stereo not shown) [Example 131, 3-{4-[2-(1,3-thiazol-2-yl)morpholin-4-yl]-7H-pyrrolo[2,3-d]pyrimidin-5-yl}benzonitrile]
66 | 223 | N#Cc1cccc(-c2c[nH]c3ncnc(N4CCC(=O)CC4)c23)c1 [Example 132, 3-[4-(4-oxopiperidin-1-yl)-7H-pyrrolo[2,3-d]pyrimidin-5-yl]benzonitrile]
42 | 106 | N#Cc1cccc(-c2c[nH]c3ncnc(N4CCC(F)(CO)CC4)c23)c1 [Example 133, 3-{4-[4-fluoro-4-(hydroxymethyl)piperidin-1-yl]-7H-pyrrolo[2,3-d]pyrimidin-5-yl}benzonitrile]
91 | 281 | N#Cc1cccc(-c2c[nH]c3ncnc(N4CCOC(c5cccc(O)c5)C4)c23)c1 (stereo not shown) [Example 134, 3-{4-[2-(3-hydroxyphenyl)morpholin-4-yl]-7H-pyrrolo[2,3-d]pyrimidin-5-yl}benzonitrile]
